Measured values taken from US20240245770A1, “COMPOSITIONS AND METHODS FOR TREATING NEUROMUSCULAR DISORDERS” (The Regents of the University of California, priority 2019, published 2024).

Assays:
Format in all cases: cell-based, human
[1] = system: Dental Pulp Stromal Cells (DPSCs); experiment: NAC blocking of H2O2 mediated cell death in DPSCs; settings: NAC 20 mM, 24 hours, FIG. 67
Procedure: Testing and selection of the best NAC to be used in ALS treatment. […] Afterwards DPSCs were detached, and the viability of cells was determined after PI staining followed by flow cytometric analysis. In this figure the decrease in FS/ss and the percentage of PI stained cells were assessed.

PBMCs = experiment: PBMC flow cytometry, percentages of immune subsets
Procedure: Percentage of immune subsets in PBMCs in lab blood drawn. PBMC were isolated from peripheral blood of donors using ficoll-hypaque gradient centrifugation. The percentages of each cell subset in PBMCs were determined by flow cytometric analysis after staining with specific fluorescent conjugated antibodies directed to the cell surface receptors. No significant differences in the percentages of immune subsets between the donors (FIG. 1A and FIG. 1B).

OSCSCs = experiment: NAC blocking of H2O2 mediated cell death in OSCSCs; settings: NAC 20 mM, 24 hours, FIG. 68
[2] = ALS patient H107 JC, Post-NAC, Pre-young plasma
[3] = ALS patient H110 RS, Post-NAC infusion

With `CC(=O)N[C@@H](CS)C(=O)O` [NAC, N-Acetyl-Cysteine] the “H2O2 mediated cell death (Fs/ss and PI positive cells)” value [1] was “blocks H2O2 mediated Cell death in DPSCs”, the “CD4, percentage of immune subset” value (PBMCs; [2]) was 31.4% and the “CD8, percentage of immune subset” value (PBMCs; [2]) was 15.1%. For the same compound, the “CD14, percentage of immune subset” value (PBMCs; [2]) was 15.0%, the “CD19, percentage of immune subset” value (PBMCs; [2]) was 24.6% and the “NK, percentage of immune subset” value (PBMCs; [2]) was 11.5%. For the same compound, the “NKT, percentage of immune subset” value (PBMCs; [2]) was 3.58%, the “total of immune subsets” value (PBMCs; [2]) was 97.6% and the “CD4, percentage of immune subset” value (PBMCs; [3]) was 27.6%. For the same compound, the “CD8, percentage of immune subset” value (PBMCs; [3]) was 20.4%, the “CD14, percentage of immune subset” value (PBMCs; [3]) was 27.1% and the “CD19, percentage of immune subset” value (PBMCs; [3]) was 10.0%. The “NK, percentage of immune subset” value (PBMCs; [3]) was 15.3%, the “total of immune subsets” value (PBMCs; [3]) was 100.4% and the “H2O2 mediated cell death (Fs/ss and PI positive cells)” value (OSCSCs) was “blocks H2O2 mediated Cell death in OSCSCs”.
